# From patent US20110201688A1, “N,N'-DI-P-BROMOPHENYL GUANIDINE TREATMENT FOR STROKE AT DELAYED TIMEPOINTS” (UNIVERSITY OF SOUTH FLORIDA, priority 2008, published 2011)
# Key:
# cortical neurons [1] = experiment: Inhibition of [Ca2+]i increases evoked by chemical ischemia (sodium azide/glucose deprivation) in cortical neurons, Fura-2; format: cell-based, rat; conditions: for More effective than DTG in depressing Ca2+ dysregulation: ischemia-induced [Ca2+]i, relative to DTG set to 1
# Method: Concentration-response relationship for p-Br-DPG inhibition of [Ca^2+]i increases evoked by chemical ischemia (4 mM azide, 0 glucose). […] Dashed line is fit to the data in FIG. 7, shoing p-Br-DPhG inhibition of acidosis-induced Ca^2+ elevations and is included for comparison.
# (§1) The effects of sigma receptors on ischemia-induced changes in intracellular calcium concentrations were studied in cultured cortical neurons from embryonic (E18) rats. Dams were euthanatized by decapitation, uterus removed, and embryos dissected out and placed in isotonic buffer containing 137 mM NaCl, 5 mM KCl, 0.2 mM NaH2PO4, 0.2 mM KH2PO4, 5.5 mM glucose, 6 mM sucrose (pH 7.4 with NaOH). Cortex were excised and minced, and tissue digested in isotonic buffer containing 0.25% trypsin/EDTA for 10 min at 37° C. and added to 3× volume of high glucose culture media (Dulbecco's Modified Eagle Media; Invitrogen, Inc., Carlsbad, Calif.), 10% (v/v) fetal calf serum, 100 U/ml penicillin and 0.1 mg/ml streptomycin. Cells were counted on a hemocytometer, plated (0.5×10^6 cells) on 18 mm coverslips coated with poly-1-lysine, and incubated at 37° C. under a 95% air, 5% CO2 atmosphere. After 24 hr the media was replaced with Neurobasal (Invitrogen, Inc., Carlsbad, Calif.) medium supplemented with B27 (Invitrogen, Inc., Carlsbad, Calif.) and 0.5 mM 1-glutamine to limit astrocyte proliferation in the cultures. Cells were used for studies after 14-21 days in culture.
# The in vitro NaN3 chemical ischemia disrupts cell metabolism, which ultimately results in plasma membrane dysfunction and intracellular Ca^2+ dysregulation. Fura-2 dye was used to measure changes in intracellular Ca^2+ in the cells. Ischemia was induced in the absence or presence of the drugs to test directly the cell response to sigma receptor activation under ischemic conditions. […] The level of resulting [Ca^2+]i inhibition was compared to DTG, which was set to a relative [Ca^2+]i, level of 1 as indicated by the dashed line. […]
# cortical neurons [2] = experiment: Inhibition of [Ca2+]i increases evoked by acidosis (pH 6.0) in cortical neurons; format: cell-based, rat; conditions: acidosis pH 6.0, cortical neurons; for Kd: n>50, read-out: Kd (Langmuir-Hill fit) for inhibition of [Ca2+]i increases evoked by acidosis
# Method: Concentration-response relationship for p-Br-DPG and DTG inhibition of [Ca^2+]i increases evoked by acidosis (pH 6.0).
# as §1
# (Ringel F, et al. Lactacidosis-induced glial cell swelling depends on extracellular Ca^2+. Neurosci Lett. 2006 May 8; 398(3):306-9. Epub 2006 Feb. 15). p-Br-DPG was characterized against DTG to determine the ability to inhibit [Ca^2+]i dysregulation in cortical neurons. Cells were administered the indicated amounts of either p-BrDPhG or DTG, followed by cellular [Ca^2+]i dysregulation stimulation by acidosis (pH 6.0). […] A dashed line is superimposed, showing the acidosis results from FIG. 7 for comparison.
# Microglia = experiment: Microglial migration to ATP in Boyden chamber; format: cell-based; conditions: 4 hrs at 37° C.
# Method: FIG. 10 is a graph showing microglial migration for 4 hrs at 37° C. Control media or 100 μM ATP were used in the absence and presence of DTG or p-Br-DPG (labeled BDTG). Asterisks indicate a significant difference between ATP (p<0.001, n=5) and ATP+BDTG 20 μM (p<0.01, n=5) from DMEM. Significance was determined by one-way ANOVA followed by post-hoc Bonferroni tests.
# Microglial migration was assayed using a Boyden chamber fitted with a polycarbonate membrane containing 8 μm pores. Microglia (500,000 cells) were placed in the upper chamber and control media or 100 μM ATP were added in the absence and presence of DTG, or various indicated concentrations of p-Br-DPG to the bottom chamber. Microglia were allowed to migrate for 4 hrs at 37° C., and were subsequently stained with DAPI and counted.
# MCAO rats = conditions: cited from earlier work
# Sprague-Dawley rats = experiment: Permanent middle cerebral artery occlusion (MCAO), infarct volume by Fluoro-Jade staining; format: in vivo, rat; conditions: sacrificed at 96 h
# Method: FIG. 9 is a graph showing the data for rats after surgery for permanent middle cerebral arterial occlusion. Rats were treated as indicated at 24, 48, and 72 h and sacrificed at 96 hours. Brain sections were stained with Fluoro-Jade to determine infarct volumes.
# 11 adult male Sprague-Dawley rats (Harlan, Indianapolis, Ind.) weighing 300 to 350 g were housed in a climate controlled room with water and laboratory chow available ad libidum. Sprague-Dawley rats (300-350 g) were randomly assigned to 1 of 3 groups: MCAO (n=4); MCAO and DTG (n=3); or MCAO and p-Br-DPG (n=4). MCAO surgery was performed as previously reported by Vendrame et al. (Vendrame, et al., Infusion of human umbilical cord blood cells in a rat model of stroke dose-dependently rescues behavioral deficits and reduces infarct volume. Stroke. 2004 October; 35(10):2390-5. Epub 2004 Aug. 19) and originally described by Longa et al. (Longa, et al., Reversible middle cerebral artery occlusion without craniectomy in rats. Stroke. 1989 January; 20(1):84-9). […]
# Rats were treated as indicated at 24, 48, and 72 hours after MCAO with vehicle (MCAO), 7.5 mg/kg N,N′-di-p-bromophenyl guanidine (p-Br-DPG) or 7.5 mg/kg 1,3 di-o-tolylguanidine (DTG). […] Stroke-induced damage was quantified using the Fluoro-Jade fluorescence to determine infarct volumes.
# [3] = higher p-Br-DPG concentrations or DTG with 100 μM ATP
SMILES,More effective than DTG in depressing Ca2+ dysregulation (cortical neurons [1]) [%],Kd (cortical neurons [2]) [µM],Microglia migration (Microglia; [3]),Reduction of infarct size (MCAO rats; MCAO rats (Ajmo 2006)),Reduction of stroke damage (MCAO rats; administered 24 hours after experimental stroke) [%],Effect against [Ca2+]i dysregulation compared with DTG (cortical neurons [2]),"Microglia migration (Microglia; 20 μM with 100 μM ATP, compared to DMEM)","Infarct volume relative to the MCAO group (Sprague-Dawley rats; 7.5 mg/kg at 24, 48 and 72 h after MCAO, p<0.001)","Efficacy on infarct volume compared with DTG treatment (Sprague-Dawley rats; 7.5 mg/kg each at 24, 48 and 72 h after MCAO)","Kd (cortical neurons [1]; 4 mM azide, 0 glucose, cortical neurons, n>50, read-out: Kd (Langmuir-Hill fit) for inhibition of [Ca2+]i increases evoked by chemical ischemia) [nM]"
NC(=Nc1ccccc1)Nc1ccccc1 [DPhG],~25,–,–,–,–,–,–,–,–,–
"Cc1ccccc1NC(=N)Nc1ccccc1C [DTG, N,N′-di-o-tolyl guanidine, reference compound]",–,109,inhibited the migration,more than 80%,85,–,–,–,–,–
"N=C(Nc1ccc(Br)cc1)Nc1ccc(Br)cc1 [p-Br-DPG, N,N′-di-p-bromophenyl guanidine]",~25,13.5,inhibited the migration,–,–,significantly higher effect against [Ca^2+]i than DTG,significantly increased microglia migration,significantly reduced infarct volume,slightly more efficacious than DTG treatment,2600
